Test results published in the supplement of paper PMC10307832.

What was measured:
Experiment in all cases: relative viability (nuclei count vs DMSO), 5 days (fraction); higher = more cells survive
Mirin + Foretinib = compound: N=C1NC(=O)/C(=C/c2ccc(O)cc2)S1 [Mirin] + COc1cc2c(Oc3ccc(NC(=O)C4(C(=O)Nc5ccc(F)cc5)CC4)cc3F)ccnc2cc1OCCCN1CCOCC1 [Foretinib] (partner 0.25 µM)
Outline: (§1)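 Each reported value is a median over duplicate plates. It expresses relative viability: treated-well nuclei count divided by vehicle-well nuclei count. Lung cancer cell lines in 1536-well plates were dosed by pin tool a day after seeding, alone with one drug or with a fixed anchor-drug dose plus five library-drug doses (not always all listed) in √10 steps, and nuclei were counted after 5 days.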

Mirin + OSI-027 = compound: N=C1NC(=O)/C(=C/c2ccc(O)cc2)S1 [Mirin] + COc1cccc2cc(-c3nc([C@H]4CC[C@H](C(=O)O)CC4)n4ncnc(N)c34)[nH]c12 [OSI-027] (partner 0.5 µM)
Outline: as §1

Mirin + Crizotinib = compound: N=C1NC(=O)/C(=C/c2ccc(O)cc2)S1 [Mirin] + C[C@@H](Oc1cc(-c2cnn(C3CCNCC3)c2)cnc1N)c1c(Cl)ccc(F)c1Cl [Crizotinib] (partner 1 µM)
Outline: as §1

Mirin + Alpelisib = compound: N=C1NC(=O)/C(=C/c2ccc(O)cc2)S1 [Mirin] + Cc1nc(NC(=O)N2CCC[C@H]2C(N)=O)sc1-c1ccnc(C(C)(C)C(F)(F)F)c1 [Alpelisib] (partner 2 µM)
Outline: as §1

Cell Line	relative viability (Mirin + Foretinib; first compound 0.25 µM)	relative viability (Mirin + Foretinib; first compound 0.7906 µM)	relative viability (Mirin + Foretinib; first compound 2.5 µM)	relative viability (Mirin + Foretinib; first compound 7.906 µM)	relative viability (Mirin + Foretinib; first compound 25 µM)	relative viability (Mirin + OSI-027; first compound 0.25 µM)	relative viability (Mirin + OSI-027; first compound 0.7906 µM)	relative viability (Mirin + OSI-027; first compound 2.5 µM)	relative viability (Mirin + OSI-027; first compound 7.906 µM)	relative viability (Mirin + OSI-027; first compound 25 µM)	relative viability (Mirin + Crizotinib; first compound 0.25 µM)	relative viability (Mirin + Crizotinib; first compound 0.7906 µM)	relative viability (Mirin + Crizotinib; first compound 2.5 µM)	relative viability (Mirin + Crizotinib; first compound 7.906 µM)	relative viability (Mirin + Crizotinib; first compound 25 µM)	relative viability (Mirin + Alpelisib; first compound 0.25 µM)	relative viability (Mirin + Alpelisib; first compound 0.7906 µM)	relative viability (Mirin + Alpelisib; first compound 2.5 µM)	relative viability (Mirin + Alpelisib; first compound 7.906 µM)	relative viability (Mirin + Alpelisib; first compound 25 µM)
NCI-H3122	0.919	0.906	0.934	1.08	1.09	0.954	0.809	0.921	0.887	0.902	0.247	0.256	0.266	0.229	0.247	0.715	0.823	0.729	0.923	0.821
PC-3 [JPC-3]	1.05	1.13	1.02	1.14	1.3	0.797	0.739	0.774	0.669	0.753	1	1.1	1.02	1.03	1.11	1.04	1.02	1.03	1.07	1.18
PC-14	0.968	0.833	1.09	0.929	1.02	0.872	0.742	0.792	–	0.728	0.873	0.893	0.887	0.945	1.07	0.83	0.915	1.01	0.95	1.05
RERF-LC-KJ	0.974	0.915	0.932	0.892	0.901	0.691	0.59	0.596	0.651	0.425	0.845	0.894	0.821	0.845	0.913	0.822	0.898	0.956	0.916	0.75
SK-LU-1	0.801	0.924	0.863	0.728	0.731	0.387	0.35	0.333	0.276	0.228	0.888	1.05	1.01	0.765	0.564	1.12	0.885	1.07	0.698	0.53
SK-MES-1	0.859	1.07	0.914	0.945	1.31	0.584	0.643	0.684	0.558	0.528	1.03	1.14	1	1.04	1.19	0.976	0.908	0.994	0.969	0.798
SW 1573	0.82	0.822	0.892	0.76	0.981	0.616	0.428	0.625	0.524	0.307	0.681	0.643	0.838	0.86	0.624	0.529	0.72	0.794	0.665	0.508
